Results taken from patent publication US7858588B2, “Immunostimulatory oligodeoxynucleic molecules” (Intercell AG, priority 2001, dated 2010).
“Also recorded” adds a separate entry of the source.

Experiments:
Type in all cases: in vivo, Mice C57BI/6
[1] = system: mouse mastocytoma-derived peptide P1A35-43; assay: IFN-γ ELISPOT on draining lymph node cells after footpad injection of P1A35-43 peptide with ODN
Method: (§1) Animals were sacrificed 4 days after injection and popliteal lymph nodes were harvested. Lymph nodes were passed through a 70 μm cell strainer and washed twice with DMEM medium (GIBCO BRL) containing 5% fetal calf serum (FCS, SIGMA chemicals). Cells were adjusted to the appropriate cell number in DMEM/5%/FCS. An IFN-γ ELISPOT assay was carried out in triplicates as described (Miyahira et al., 1995). This method is a widely used procedure allowing the quantification of antigen-specific T cells. Lymphocytes were stimulated ex vivo in triplicates with medium (background-control), P1A35-43 peptide, an irrelevant peptide CSP (SYVPSAEQI, SEQ ID NO:18), pR 60, U-ODN 13 and Concanavalin A (Con A). Spots representing single IFN-γ producing T cells were counted and the number of background spots was substracted from all samples. The high number of spots detected after the stimulation with Con A (data not shown) indicates a good condition of the used lymphocytes. For each experimental group of mice the number of spots/1×10^6 cells are illustrated in FIG. 4, the standard deviation of ex vivo-stimulated triplicates is given.

[2] = system: melanoma-derived peptide TRP-2181-188 (TRP-2181-188-specific T cells); assay: IFN-γ ELISPOT on draining lymph node cells after footpad injection of TRP-2181-188 peptide with ODN; details: for TRP-2181-188-specific immune response (number of IFN-γ-producing cells/1×10^6 lymph node cells) with co-injection of poly-L-arginine: ODN 5 nmol/mouse + TRP-2181-188 100 μg/mouse + pR60 100 μg/mouse; for TRP-2181-188-specific immune response (number of IFN-γ-producing cells/1×10^6 lymph node cells) with co-injection of poly-L-arginine / TRP-2181-188-specific immune response (number of IFN-γ-producing cells/1×10^6 lymph node cells): hind footpads; for TRP-2181-188-specific immune response (number of IFN-γ-producing cells/1×10^6 lymph node cells) / TRP-2181-188-specific immune response (IFN-γ-producing cells), FIG. 7-9: ODN 5 nmol/mouse + TRP-2181-188 100 μg/mouse; for TRP-2181-188-specific immune response (number of IFN-γ-producing cells/1×10^6 lymph node cells): no poly-L-arginine, lymph nodes 4 days later; for TRP-2181-188-specific immune response (IFN-γ-producing cells), FIG. 7-9: groups with and without pR 60, 4 days
Method: as §1, with “TRP-2181-188-peptide,” for “P1A35-43 peptide,”, “OVA257-264,” for “CSP (SYVPSAEQI, SEQ ID NO:18),”, “U-ODN13” for “U-ODN 13”, “IFN-γ-producing cells/1×10^6” for “spots/1×10^6”, “1,” for “4,”
as §1, with “TRP-2181-188-peptide,” for “P1A35-43 peptide,”, “OVA257-264,” for “CSP (SYVPSAEQI, SEQ ID NO:18),”, “U-ODN15” for “U-ODN 13”, “IFN-γ-producing cells/1×10^6” for “spots/1×10^6”, “5,” for “4,”
as §1, with “TRP-2181-188-peptide,” for “P1A35-43 peptide,”, “OVA257-264,” for “CSP (SYVPSAEQI, SEQ ID NO:18), pR 60,”, “16, ODN 20” for “13”, “IFN-γ-producing cells/1×10^6” for “spots/1×10^6”, “6,” for “4,”
Animals were sacrificed 4 days after injection and popliteal lymph nodes were harvested. Lymph nodes were passed through a 70 μm cell strainer and washed twice with DMEM medium (GIBCO BRL) containing 5% fetal calf serum (FCS, SIGMA chemicals). Cells were adjusted to the appropriate cell number in DMEM/5%/FCS. An IFN-γ ELISPOT assay was carried out in triplicates as described (Miyahira et al., 1995). This method is a widely used procedure allowing the quantification of antigen-specific T cells. […]

[3] = system: ovalbumin-derived peptide OVA257-264; assay: IFN-γ ELISPOT on draining lymph node cells after footpad injection of OVA257-264 peptide with ODN; details: ODN 5 nmol/mouse + OVA257-264 300 μg/mouse, no pR60, 4 days
Method: as §1, with “duplicates” for “triplicates”, “OVA257-264” for “P1A35-43”, “TRP-2181-188,” for “CSP (SYVPSAEQI, SEQ ID NO:18),”, “U-ODN13” for “U-ODN 13”, “IFN-γ-producing cells/1×10^6” for “spots/1×10^6”, “3,” for “4,”

Substance: tcc atg acu ttc ctg atg ct [U-ODN 13] (TCCATGACUTTCCTGATGCT; chemistry not given here)
- P1A35-43-specific immune response with co-injection of poly-L-arginine ([1]; ODN 5 nmol/mouse + P1A35-43 100 μg/mouse + pR60 100 μg/mouse, 4 days): further enhanced
- P1A35-43-specific immune response (IFN-γ-producing cells/1×10^6 lymph node cells) ([1]; ODN 5 nmol/mouse + P1A35-43 100 μg/mouse, no pR60, 4 days): strong immune response
- TRP-2181-188-specific immune response (number of IFN-γ-producing cells/1×10^6 lymph node cells) with co-injection of poly-L-arginine ([2]; 4 days): strong immune response; also recorded: does not influence this strong response
- TRP-2181-188-specific immune response (number of IFN-γ-producing cells/1×10^6 lymph node cells) [2]: strong immune response; also recorded: strongly enhances
- TRP-2181-188-specific T cells / immune response compared to CpG-ODN 1668 ([2]; ODN 5 nmol/mouse vs CpG 1668 5 nmol/mouse, each with TRP-2181-188, 4 days): higher number
- OVA257-264-specific immune response (IFN-γ-producing cells/1×10^6 lymph node cells) [3]: induces an immune response

Substance: uuu uuu uuu uuu uuu uuu uuu uuu ut (UUUUUUUUUUUUUUUUUUUUUUUUUT; DNA, all phosphorothioate, T or U not given here) [U-ODN 24]
- TRP-2181-188-specific immune response (IFN-γ-producing cells), FIG. 7-9 [2]: generation of specific immune responses

Substance: uiu iui uiu iui uiu iui uiu iui ug [U-ODN 22]
- TRP-2181-188-specific immune response (IFN-γ-producing cells), FIG. 7-9 [2]: generation of specific immune responses

Substance: tcc atg acu ttc ctg atg ct [U-ODN 13b] (DNA TCCATGACUTTCCTGCTGATGCT; DNA, backbone and methylation of C not given here; further chemistry not fully specified)
- TRP-2181-188-specific immune response (number of IFN-γ-producing cells/1×10^6 lymph node cells) with co-injection of poly-L-arginine ([2]; 4 days): only after co-injection of poly-L-arginine a strong peptide-specific immune response is induced; also recorded: only upon co-injection of poly-L-arginine a high immune response was induced

Substance: uau aua uau aua uau aua uau aua ua (UAUAUAUAUAUAUAUAUAUAUAUAUA; DNA, all phosphorothioate, T or U not given here) [U-ODN 21]
- TRP-2181-188-specific immune response (IFN-γ-producing cells), FIG. 7-9 [2]: generation of specific immune responses

Substance: nhh hhh wdu dhh hhh hhh wn [U-ODN 15]
- TRP-2181-188-specific immune response (IFN-γ-producing cells) at 10 times less ODN ([2]; ODN 0.5 nmol/mouse + TRP-2181-188 100 μg/mouse, 4 days): strong immune response could be induced
- TRP-2181-188-specific immune response (number of IFN-γ-producing cells/1×10^6 lymph node cells) with co-injection of poly-L-arginine ([2]; 4 days): does not influence this strong response; also recorded: strong immune response
- TRP-2181-188-specific immune response (number of IFN-γ-producing cells/1×10^6 lymph node cells) [2]: strongly enhances; also recorded: strong immune response

Substance: hhh wdu dhh h [U-ODN 16]
- TRP-2181-188-specific immune response (IFN-γ-producing cells), 10mer cocktail ([2]; ODN 10 nmol/mouse + TRP-2181-188 100 μg/mouse, no pR60, compared to peptide alone or with ODN 20, 4 days): strong immune response
